Among the test systems are SK-MEL-5 melanoma; ACHN renal; A549 NSCLC; UACC-62 melanoma; HL-60(TB) leukemia; NCI-H23 lung; IGROV1 ovarian; SK-MEL-28 melanoma; HOP-92 NSCLC; UO-31 renal.
Common to all, as to test: NCI anticancer screen, dose series, 48 h

The source of these data is PubChem BioAssay (NCI).

Each structure is given as a SMILES string. Several values for one entry are separate records, joined by “and”; a condition that tells them apart may be missing. Equal entries are not always repeated.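 Cells were grown in 96-well plates and exposed to each compound for 48 hours at five concentrations; endpoints were interpolated linearly between bracketing concentrations, or set to the highest concentration if not reached. GI50 marks 50% less growth. TGI is the concentration that stops growth completely.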

`COc1cc2ncn(-c3cc(OCc4ccccc4C(F)(F)F)c(C(C)=O)s3)c2cc1OC`: the GI50 in the assay on SK-MEL-5 melanoma, in the assay with ACHN renal, in the assay on A549 NSCLC, with UACC-62 melanoma, in the assay with HL-60(TB) leukemia and in the assay with NCI-H23 lung was above 25000 nM each time. For the same compound, the GI50 in the assay on IGROV1 ovarian was above 25000 nM; in the assay on SK-MEL-28 melanoma it was above 25000 nM; in the assay on HOP-92 NSCLC, 10800 nM; in the assay with UO-31 renal, above 25 µM. Also, the TGI in the assay with SK-MEL-5 melanoma, in the assay with ACHN renal, in the assay on A549 NSCLC, with UACC-62 melanoma, in the assay on HL-60(TB) leukemia and in the assay on NCI-H23 lung was above 25 µM throughout. The TGI with IGROV1 ovarian, with SK-MEL-28 melanoma, in the assay with HOP-92 NSCLC and in the assay on UO-31 renal was above 25 µM throughout.

For `COC(=O)C(=O)C(C(=O)C=C(C)C)C(=O)C(=O)Nc1nc2ccc([N+](=O)[O-])cc2s1` (stereo not drawn), the TGI in the assay with SK-MEL-5 melanoma, in the assay on ACHN renal, in the assay on A549 NSCLC, in the assay on UACC-62 melanoma, in the assay on HL-60(TB) leukemia and in the assay on NCI-H23 lung was above 100 µM throughout. The TGI with IGROV1 ovarian is 66.4 µM; in the assay with SK-MEL-28 melanoma, above 100 µM; in the assay on HOP-92 NSCLC, 74.2 µM; with UO-31 renal, above 100 µM.

On to `Cc1nnc(-c2ccc(C)c(-c3ccc(C(=O)NCc4ccc(Cl)cc4)cc3)c2)o1`, for which the GI50 in the assay on SK-MEL-5 melanoma is 3970 nM; in the assay with ACHN renal it was 12400 nM; in the assay on A549 NSCLC it was 11500 nM; in the assay on UACC-62 melanoma, 8210 nM; with HL-60(TB) leukemia, 8550 nM; in the assay on NCI-H23 lung, 11300 nM. For the same compound, the GI50 in the assay with IGROV1 ovarian was above 16300 nM; with SK-MEL-28 melanoma it was 14300 nM; in the assay on HOP-92 NSCLC, 3260 nM; in the assay with UO-31 renal, 4.37 µM. Moreover, the TGI in the assay with SK-MEL-5 melanoma was 9.53 µM; in the assay with ACHN renal, above 25 µM; in the assay on A549 NSCLC it was above 25 µM; in the assay on UACC-62 melanoma it was above 25 µM; with HL-60(TB) leukemia it was 24.5 µM; in the assay on NCI-H23 lung, above 25 µM. Also, the TGI in the assay with IGROV1 ovarian, with SK-MEL-28 melanoma, in the assay with HOP-92 NSCLC and in the assay with UO-31 renal was above 25 µM each time.

Consider `C=C1C(=O)OC2CC3(C)CCCC(C)C3=CC12` (stereo not drawn), for which the TGI with SK-MEL-5 melanoma was found to be 4.6 µM; in the assay on ACHN renal, 10.4 µM; in the assay with A549 NSCLC, 26.8 µM; in the assay with UACC-62 melanoma it was 16.2 µM; in the assay with HL-60(TB) leukemia it was 2.59 µM; in the assay on NCI-H23 lung, 19.9 µM. Besides, the TGI in the assay on IGROV1 ovarian was found to be 22.4 µM; with SK-MEL-28 melanoma, 12.2 µM; in the assay on HOP-92 NSCLC, 10.3 µM; in the assay on UO-31 renal, 12.5 µM.

For the compound `CC(O[Si](c1ccccc1)(c1ccccc1)C(C)(C)C)[C@H](NC(=O)OC(C)(C)C)C(=O)O` (stereo partly drawn), the TGI in the assay on SK-MEL-5 melanoma is 50.8 µM; in the assay with ACHN renal, above 100 µM; in the assay on A549 NSCLC, above 100 µM; in the assay with HL-60(TB) leukemia, 59.8 µM; in the assay with NCI-H23 lung it was above 100 µM; with IGROV1 ovarian it was 50.2 µM. Also, the TGI with SK-MEL-28 melanoma is above 100 µM; in the assay on HOP-92 NSCLC, 78.1 µM; with UO-31 renal, above 100 µM.

Regarding `CC(C)(C)NC/C(=C\c1ccccc1)C(=O)c1ccccc1`, the GI50 in the assay with SK-MEL-5 melanoma was 1530 nM; in the assay on ACHN renal, 1450 nM; with A549 NSCLC, 2750 nM; in the assay on UACC-62 melanoma, 1510 nM; with HL-60(TB) leukemia it was 2590 nM; with NCI-H23 lung, 1770 nM. For the same compound, the GI50 was 2780 nM with IGROV1 ovarian, 1900 nM in the assay with SK-MEL-28 melanoma, 2400 nM with HOP-92 NSCLC and 1.41 µM in the assay with UO-31 renal. The TGI with SK-MEL-5 melanoma worked out at 2.91 µM; in the assay on ACHN renal, 3.62 µM; in the assay on A549 NSCLC, 8.23 µM; in the assay on UACC-62 melanoma, 4.91 µM; in the assay with HL-60(TB) leukemia, 14.1 µM; in the assay on NCI-H23 lung, 5.02 µM. Also, the TGI in the assay with IGROV1 ovarian was 8.99 µM; with SK-MEL-28 melanoma, 3.75 µM; with HOP-92 NSCLC, 6.56 µM; in the assay on UO-31 renal it was 2.88 µM.

For the compound `Cc1cc(NNC(=O)c2ccccc2O)nc(Nc2nc3ccccc3o2)n1`, the GI50 in the assay on SK-MEL-5 melanoma was 1110 nM; in the assay with ACHN renal, 1020 nM; in the assay on A549 NSCLC it was 1130 nM; with UACC-62 melanoma, 966 nM; with HL-60(TB) leukemia it was 1130 nM; in the assay with NCI-H23 lung it was 3990 nM. Also, the GI50 is 1300 nM in the assay on IGROV1 ovarian, 1640 nM with SK-MEL-28 melanoma, 1110 nM in the assay on HOP-92 NSCLC and 0.622 µM in the assay with UO-31 renal. Further, the TGI came to 6.72 µM in the assay with SK-MEL-5 melanoma; 12.2 µM with ACHN renal; 10.3 µM in the assay with A549 NSCLC; 11.4 µM in the assay on UACC-62 melanoma; 6.99 µM in the assay on HL-60(TB) leukemia; 37.8 µM with NCI-H23 lung. The TGI in the assay on IGROV1 ovarian was 12.2 µM; with SK-MEL-28 melanoma, 13.3 µM; with HOP-92 NSCLC it was 13.9 µM; in the assay on UO-31 renal it was 1.91 µM.

Consider `C=C1C(=O)OC2C1C(OC(=O)/C(C)=C\C)CC1(CO1)C1C(O)C=C(C)C21O` (stereo not drawn), for which the TGI was 17.7 µM in the assay on SK-MEL-5 melanoma; 13.9 µM in the assay on ACHN renal; 40.6 µM with A549 NSCLC; 5.81 µM in the assay on UACC-62 melanoma; above 100 µM in the assay on HL-60(TB) leukemia; 27.2 µM with NCI-H23 lung. In addition, the TGI amounted to 29.7 µM in the assay with IGROV1 ovarian, 13.2 µM with SK-MEL-28 melanoma, 31.3 µM in the assay with HOP-92 NSCLC and 22.2 µM with UO-31 renal.

With `COc1ccc(C[C@H](N)C(=O)N2C[C@@H](CO)C[C@@H](n3cnc4c(N(C)C)ncnc43)C2)cc1`, the TGI in the assay on SK-MEL-5 melanoma, in the assay with A549 NSCLC, in the assay on UACC-62 melanoma, with HL-60(TB) leukemia, with NCI-H23 lung and with IGROV1 ovarian was above 100 µM in each case. Further, the TGI in the assay on SK-MEL-28 melanoma, in the assay with HOP-92 NSCLC and in the assay on UO-31 renal was above 100 µM throughout.

Regarding `COc1ccc(/C=C\c2cc(OC)c(OC)c(OC)c2)c(O)c1O`, the GI50 in the assay with SK-MEL-5 melanoma is below 15 nM; in the assay with A549 NSCLC, 75.4 nM; in the assay with UACC-62 melanoma, 238 nM; in the assay with NCI-H23 lung, 59.8 nM and 84.8 nM; with IGROV1 ovarian, 212 nM; with SK-MEL-28 melanoma, 655 nM. Also, the GI50 is 58.8 nM in the assay with HOP-92 NSCLC and 6.76 µM in the assay with UO-31 renal. In addition, the TGI in the assay on ACHN renal is 57.7 µM; in the assay on A549 NSCLC it was > 70.1 µM and 88.7 µM; in the assay with UACC-62 melanoma, 17 µM and 6.88 µM; with HL-60(TB) leukemia, 0.376 µM; with IGROV1 ovarian, 20.6 µM and 54.2 µM; in the assay on SK-MEL-28 melanoma it was 49.6 µM and 60.2 µM. Moreover, the TGI in the assay on UO-31 renal is 33.7 µM and > 77.8 µM.
